Results as given in patent EP4603105A1, “PHARMACEUTICAL COMPOSITION CONTAINING CYCLIC COMPOUND HAVING SELECTIVE KRAS INHIBITORY EFFECT AGAINST HRAS AND NRAS” (CHUGAI SEIYAKU KABUSHIKI KAISHA, priority 2022, dated 2024).
Where two headings read alike, the source gives them in different places. Where a SMILES comes first, the peptide text is derived from it. Bridges are numbered along the chain shown (N, C = ends). [ ]: non-standard residue; d: D form. The star is where a group is joined. hPhe(3-Cl-4-CF3) = N[C@@H](CCc1ccc(C(F)(F)F)c(Cl)c1)C(=O)O; 3Oxa8azabicyclo(3.2.1)octane = C1CC2COCC1N2*; NEtPhe(4-Me) = CCN[C@@H](Cc1ccc(C)cc1)C(=O)O; NMeGly(cPent) = CN[C@H](C(=O)O)C1CCCC1; NMeD = CN[C@@H](CC(=O)O)C(=O)O; NMeL = CN[C@@H](CC(C)C)C(=O)O; Ac5c = NC1(C(=O)O)CCCC1; Sar = CNCC(=O)O

How the values were obtained:
[1] = target: GDP-bound NRAS wild-type protein (Homo sapiens, UniProt P01111); experiment: Binding to NRAS by surface plasmon resonance (SPR), KD and KD ratio to KRAS
Outline: (§1)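 Each cycle, GDP-bound biotin-Avi RAS was captured (~100–300 RU), compound concentrations were injected low to high for 75 s each at 100 µL/min, then the chip was regenerated. Buffer: HBS pH 7.4, 10 mM MgCl2, 10 µM GDP, 1 mM DTT, 4% DMSO; 30°C. KD from a 1:1 binding model.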

HRAS wild-type protein = HRAS wild-type protein (Homo sapiens, UniProt P01112); experiment: Binding to HRAS by surface plasmon resonance (SPR), KD and KD ratio to KRAS
Outline: as §1

[2] = test system: human lung cancer strain NCI-H441; assay type: cell-based
Outline: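 Signal came from […] measured per well once the reagent was added. Beforehand, cells were cultured at 37°C and 5% carbon dioxide on a compound series serially diluted in dimethyl sulfoxide.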

[3] = ratio of KD for GDP-bound NRAS wild-type protein to KD for KRAS
[4] = ratio of KD for HRAS wild-type protein to KD for KRAS

GDP-bound NRAS wild-type protein, sequence (P01111 whole entry): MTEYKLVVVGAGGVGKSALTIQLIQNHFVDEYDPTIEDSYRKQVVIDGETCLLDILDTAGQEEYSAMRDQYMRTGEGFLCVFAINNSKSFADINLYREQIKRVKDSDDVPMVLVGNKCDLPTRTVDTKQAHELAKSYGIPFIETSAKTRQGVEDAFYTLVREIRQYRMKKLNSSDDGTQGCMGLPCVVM
HRAS wild-type protein, sequence (P01112 whole entry): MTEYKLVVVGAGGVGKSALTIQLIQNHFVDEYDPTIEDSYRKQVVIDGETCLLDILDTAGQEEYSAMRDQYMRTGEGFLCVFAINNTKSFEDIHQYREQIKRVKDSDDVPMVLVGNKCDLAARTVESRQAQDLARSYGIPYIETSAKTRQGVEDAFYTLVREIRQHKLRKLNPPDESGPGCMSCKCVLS

| Structure (SMILES) | NRAS /KRAS [1, 3] | HRAS /KRAS (HRAS wild-type protein; [4]) | IC50 [2] | also measured |
| --- | --- | --- | --- | --- |
| CCO[C@@H]1C[C@H]2C(=O)NC3(CCC3)C(=O)N(C)[C@@H](C3CCCC3)C(=O)N(C)[C@H](C(=O)N(C)C)CC(=O)N(C)[C@@H](CC3CCCC3)C(=O)N[C@@H]([C@@H](C)CC)C(=O)N(C)CC(=O)N(C)[C@H]3C/C=C\CCN(C3=O)[C@@H](Cc3ccc(C)cc3)C(=O)N(C)CC(=O)N[C@@H](CCc3ccc(C4CC4)c(F)c3)C(=O)N2C1 [PP2683] | A (a compound having 10 or more and less than 20 is denoted as A) | A (a compound having 10 or more and less than 20 is denoted as A) | 63.3 nM | – |
| CCO[C@@H]1C[C@H]2C(=O)NC3(CCC3)C(=O)N(C)[C@@H](C3CCCC3)C(=O)N(C)[C@H](C(=O)N(C)CCOC)CC(=O)N(C)[C@@H](CC3CC3)C(=O)N[C@@H]([C@@H](C)CC)C(=O)N(C)CC(=O)N(C)[C@H]3C/C=C\CCN(C3=O)[C@@H](Cc3ccc(C(F)(F)F)cc3)C(=O)N(C)CC(=O)N[C@@H](CCc3ccc(C(F)(F)F)c(OC)c3)C(=O)N2C1 [PP1327] | – | – | 12.4 nM | NRAS /KRAS ([1]; ratio of KD with respect to GDP-bound NRAS wild-type protein to KD with respect to KRAS): A (a compound having 10 or more and less than 20 is denoted as A); HRAS /KRAS (HRAS wild-type protein; ratio of KD with respect to HRAS wild-type protein to KD with respect to KRAS): A (a compound having 10 or more and less than 20 is denoted as A) |
| CC[C@H](C)[C@@H]1NC(=O)[C@H](CC(C)C)N(C)C(=O)C[C@@H](C(=O)N2C3CCC2COC3)N(C)C(=O)[C@H](C2CCCC2)N(C)C(=O)C2(CCCC2)NC(=O)[C@@H]2CCCN2C(=O)[C@H](CCc2ccc(C(F)(F)F)c(Cl)c2)NC(=O)CN(C)C(=O)[C@H](Cc2ccc(C)cc2)N(CC)C(=O)CN(C)C(=O)CN(C)C1=O [PP0051] ([NMeL]I[Sar][Sar][NEtPhe(4-Me)][Sar][hPhe(3-Cl-4-CF3)]P[Ac5c][NMeGly(cPent)][NMeD]-{3Oxa8azabicyclo(3.2.1)octane}; lactam N-11) | C (A compound having a KD ratio of 0.1 or more and less than 3 is denoted as C) | C (A compound having a KD ratio of 0.1 or more and less than 3 is denoted as C) | 22.1 nM | – |
| CCC[C@H]1C(=O)N[C@@H]([C@@H](C)CC)C(=O)N(C)CC(=O)N(C)[C@H]2C/C=C\CCN(C2=O)[C@@H](Cc2ccc(C(F)(F)F)cc2)C(=O)N(C)CC(=O)N[C@@H](CCc2cc(Cl)c3c(ccn3C)c2)C(=O)N2C[C@H](OCC)C[C@H]2C(=O)NC2(CC(C)(C)C2)C(=O)N(C)[C@@H](C(CC)CC)C(=O)N(C)[C@H](C(=O)N(C)C)CC(=O)N1C [PP2896] | A (a compound having 10 or more and less than 20 is denoted as A) | A (a compound having 10 or more and less than 20 is denoted as A) | – | IC50 ([2]; NCI-H441 cells, 4 days, CellTiter-Glo, read-out: NCl-H441 IC50): 79.3 nM |
| C=CCC[C@H]1C(=O)N[C@@H]([C@@H](C)CC)C(=O)N(C)CC(=O)N(C)[C@H]2CCCCN(C2=O)[C@@H](Cc2ccc(C(F)(F)F)cc2)C(=O)N(C)CC(=O)N[C@@H](CCc2cc(F)c(C(F)(F)F)c(F)c2)C(=O)N2C[C@H](OCC)C[C@H]2C(=O)N[C@](C)(CC=C)C(=O)N(C)[C@@H](C2CCCC2)C(=O)N(C)[C@H](C(=O)N2CCOCC2)CC(=O)N1C [PP0875] | C (A compound having a KD ratio of 0.1 or more and less than 3 is denoted as C) | B (a compound having 3 or more and less than 10 is denoted as B) | 4.8 nM | – |
| CC[C@H](C)[C@@H]1NC(=O)[C@H](CC(C)C)N(C)C(=O)C[C@@H](C(=O)N2CCOCC2)N(C)C(=O)[C@H](C2CCCC2)N(C)C(=O)C2(CCCC2)NC(=O)[C@@H]2CC(F)(F)CN2C(=O)[C@H](CCc2cc(F)c(C(F)(F)F)c(F)c2)NC(=O)CN(C)C(=O)[C@H](Cc2ccc(C(F)(F)F)cc2)N2CCCCC[C@@H](C2=O)N(C)C(=O)CN(C)C1=O [PP0491] | – | – | 33.1 nM | NRAS /KRAS ([1]; ratio of the KD value with respect to GDP-bound NRAS wild-type protein to the KD value with respect to KRAS): B (a compound having 3 or more and less than 10 is denoted as B); HRAS /KRAS (HRAS wild-type protein; ratio of the KD value with respect to HRAS wild-type protein to the KD value with respect to KRAS): B (a compound having 3 or more and less than 10 is denoted as B) |
| CCO[C@@H]1C[C@H]2C(=O)NC3(CCC3)C(=O)N(C)[C@@H](C3CCCC3)C(=O)N(C)[C@H](C(=O)N(C)C)CC(=O)N(C)[C@@H](CC(C)C)C(=O)N[C@@H]([C@@H](C)CC)C(=O)N(C)CC(=O)N(C)[C@H]3C/C=C\CCN(C3=O)[C@@H](Cc3ccc(F)cc3)C(=O)N(C)CC(=O)N[C@@H](CCc3cc(F)c(C(F)(F)F)c(F)c3)C(=O)N2C1 [PP1488] | – | – | 23.2 nM | NRAS /KRAS ([1]; ratio of KD value for GDP-bound NRAS wild-type protein to KD value for KRAS (SPR)): A (a compound having 10 or more and less than 20 is denoted as A); HRAS /KRAS (HRAS wild-type protein; ratio of KD value for HRAS wild-type protein to KD value for KRAS (SPR)): B (a compound having 3 or more and less than 10 is denoted as B) |
